# Source: US12077503B2, “Substituted cyclic amides and their use as herbicides” (FMC CORPORATION, priority 2015, dated 2024)
# Experiments:
# Assay in all cases: Test C preemergence
# Format in all cases: in vivo
# [1] = test system: crabgrass, large (large crabgrass, Digitaria sanguinalis); conditions: for Plant response rating, Crabgrass, Large: scale 0 to 100, 0 no effect, 100 complete control
# Method in brief: (§1)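 Preemergence application to seeds in loam/sand soil, or foliar (postemergence) application to plants 2–18 cm tall in peat moss/vermiculite medium; surfactant-containing non-phytotoxic solvent vehicle; greenhouse. Visual injury vs controls at 13–15 d; 0 = no effect, 100 = complete control.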
# [2] = test system: soybean (Glycine max); conditions: for Plant response rating, Soybean: scale 0 to 100, 0 no effect, 100 complete control
# Method in brief: as §1
# [3] = test system: Galium (catchweed bedstraw, Galium aparine); conditions: for Plant response rating, Galium: scale 0 to 100, 0 no effect, 100 complete control
# Method in brief: as §1
# [4] = test system: ragweed (common ragweed, Ambrosia elatior); conditions: for Plant response rating, Ragweed: scale 0 to 100, 0 no effect, 100 complete control
# Method in brief: as §1
# [5] = test system: barnyardgrass (Echinochloa crus-galli); conditions: for Plant response rating, Barnyardgrass: scale 0 to 100, 0 no effect, 100 complete control
# Method in brief: as §1
# [6] = test system: waterhemp (common waterhemp, Amaranthus rudis); conditions: for Plant response rating, Waterhemp: scale 0 to 100, 0 no effect, 100 complete control
# Method in brief: as §1
# [7] = test system: velvetleaf (Abutilon theophrasti); conditions: for Plant response rating, Velvetleaf: scale 0 to 100, 0 no effect, 100 complete control
# Method in brief: as §1
# [8] = test system: wheat (winter wheat, Triticum aestivum); conditions: for Plant response rating, Wheat: scale 0 to 100, 0 no effect, 100 complete control
# Method in brief: as §1
# [9] = test system: blackgrass (Alopecurus myosuroides); conditions: for Plant response rating, Blackgrass: scale 0 to 100, 0 no effect, 100 complete control
# Method in brief: as §1
# [10] = test system: lambsquarters (Chenopodium album); conditions: for Plant response rating, Lambsquarters: scale 0 to 100, 0 no effect, 100 complete control
# Method in brief: as §1
# [11] = test system: foxtail, giant (giant foxtail, Setaria faberii); conditions: for Plant response rating, Foxtail, Giant: scale 0 to 100, 0 no effect, 100 complete control
# Method in brief: as §1
# [12] = test system: johnsongrass (Sorghum halepense); conditions: for Plant response rating, Johnsongrass: scale 0 to 100, 0 no effect, 100 complete control
# Method in brief: as §1
# [13] = test system: nutsedge, yellow (yellow nutsedge, Cyperus esculentus); conditions: for Plant response rating, Nutsedge, Yellow: scale 0 to 100, 0 no effect, 100 complete control
# Method in brief: as §1
# [14] = test system: morningglory (Ipomoea coccinea); conditions: for Plant response rating, Morningglory: scale 0 to 100, 0 no effect, 100 complete control
# Method in brief: as §1
# [15] = test system: pigweed (Amaranthus retroflexus); conditions: for Plant response rating, Pigweed: scale 0 to 100, 0 no effect, 100 complete control
# Method in brief: as §1
# [16] = test system: corn (Zea mays); conditions: for Plant response rating, Corn: scale 0 to 100, 0 no effect, 100 complete control
# Method in brief: as §1
# [17] = test system: oilseed rape (Brassica napus); conditions: for Plant response rating, Oilseed Rape: scale 0 to 100, 0 no effect, 100 complete control
# Method in brief: as §1
# [18] = test system: ryegrass, Italian (Italian ryegrass, Lolium multiflorum); conditions: for Plant response rating, Ryegrass, Italian: scale 0 to 100, 0 no effect, 100 complete control
# Method in brief: as §1
# [19] = 31 g ai/ha, 0 is no effect, 100 is complete control
structure (smiles),measurement,setting,value
"CN1C[C@H](c2ccc(F)c(F)c2)[C@@H](C(=O)Nc2ccccc2F)C1=O [Compound 596, (3S,4S)-4-(3,4-difluorophenyl)-N-(2-fluorophenyl)-1-methyl-2-oxo-3-pyrrolidinecarboxamide]","Plant response rating (scale of 0 to 100), Crabgrass, Large",[1]; [19],95
same,"Plant response rating, Crabgrass, Large",[1]; 62 g ai/ha,100
same,"Plant response rating, Crabgrass, Large",[1]; 125 g ai/ha,100
same,"Plant response rating, Crabgrass, Large",[1]; 250 g ai/ha,100
same,"Plant response rating (scale of 0 to 100), Soybean",[2]; [19],0
same,"Plant response rating, Soybean",[2]; 62 g ai/ha,0
same,"Plant response rating, Soybean",[2]; 125 g ai/ha,0
same,"Plant response rating, Soybean",[2]; 250 g ai/ha,100
same,"Plant response rating (scale of 0 to 100), Galium",[3]; [19],30
same,"Plant response rating, Galium",[3]; 62 g ai/ha,85
same,"Plant response rating, Galium",[3]; 125 g ai/ha,40
same,"Plant response rating, Galium",[3]; 250 g ai/ha,85
same,"Plant response rating (scale of 0 to 100), Ragweed",[4]; [19],10
same,"Plant response rating, Ragweed",[4]; 62 g ai/ha,20
same,"Plant response rating, Ragweed",[4]; 125 g ai/ha,50
same,"Plant response rating, Ragweed",[4]; 250 g ai/ha,75
same,"Plant response rating (scale of 0 to 100), Barnyardgrass",[5]; [19],90
same,"Plant response rating, Barnyardgrass",[5]; 62 g ai/ha,95
same,"Plant response rating, Barnyardgrass",[5]; 125 g ai/ha,95
same,"Plant response rating, Barnyardgrass",[5]; 250 g ai/ha,95
same,"Plant response rating (scale of 0 to 100), Waterhemp",[6]; [19],0
same,"Plant response rating, Waterhemp",[6]; 62 g ai/ha,0
same,"Plant response rating, Waterhemp",[6]; 125 g ai/ha,25
same,"Plant response rating, Waterhemp",[6]; 250 g ai/ha,65
same,"Plant response rating (scale of 0 to 100), Velvetleaf",[7]; [19],10
same,"Plant response rating, Velvetleaf",[7]; 62 g ai/ha,20
same,"Plant response rating, Velvetleaf",[7]; 125 g ai/ha,30
same,"Plant response rating, Velvetleaf",[7]; 250 g ai/ha,55
same,"Plant response rating (scale of 0 to 100), Wheat",[8]; [19],15
same,"Plant response rating, Wheat",[8]; 62 g ai/ha,45
same,"Plant response rating, Wheat",[8]; 125 g ai/ha,50
same,"Plant response rating, Wheat",[8]; 250 g ai/ha,70
same,"Plant response rating (scale of 0 to 100), Blackgrass",[9]; [19],0
same,"Plant response rating, Blackgrass",[9]; 62 g ai/ha,40
same,"Plant response rating, Blackgrass",[9]; 125 g ai/ha,70
same,"Plant response rating, Blackgrass",[9]; 250 g ai/ha,90
same,"Plant response rating (scale of 0 to 100), Lambsquarters",[10]; [19],10
same,"Plant response rating, Lambsquarters",[10]; 62 g ai/ha,60
same,"Plant response rating, Lambsquarters",[10]; 125 g ai/ha,70
same,"Plant response rating, Lambsquarters",[10]; 250 g ai/ha,75
same,"Plant response rating (scale of 0 to 100), Foxtail, Giant",[11]; [19],90
same,"Plant response rating, Foxtail, Giant",[11]; 62 g ai/ha,90
same,"Plant response rating, Foxtail, Giant",[11]; 125 g ai/ha,95
same,"Plant response rating, Foxtail, Giant",[11]; 250 g ai/ha,100
same,"Plant response rating (scale of 0 to 100), Johnsongrass",[12]; [19],20
same,"Plant response rating, Johnsongrass",[12]; 62 g ai/ha,25
same,"Plant response rating, Johnsongrass",[12]; 125 g ai/ha,70
same,"Plant response rating, Johnsongrass",[12]; 250 g ai/ha,75
same,"Plant response rating (scale of 0 to 100), Nutsedge, Yellow",[13]; [19],0
same,"Plant response rating, Nutsedge, Yellow",[13]; 62 g ai/ha,0
same,"Plant response rating, Nutsedge, Yellow",[13]; 125 g ai/ha,0
same,"Plant response rating, Nutsedge, Yellow",[13]; 250 g ai/ha,0
same,"Plant response rating (scale of 0 to 100), Morningglory",[14]; [19],0
same,"Plant response rating, Morningglory",[14]; 62 g ai/ha,0
same,"Plant response rating, Morningglory",[14]; 125 g ai/ha,10
same,"Plant response rating, Morningglory",[14]; 250 g ai/ha,20
same,"Plant response rating (scale of 0 to 100), Pigweed",[15]; [19],20
same,"Plant response rating, Pigweed",[15]; 62 g ai/ha,25
same,"Plant response rating, Pigweed",[15]; 125 g ai/ha,40
same,"Plant response rating, Pigweed",[15]; 250 g ai/ha,55
same,"Plant response rating (scale of 0 to 100), Corn",[16]; [19],0
same,"Plant response rating, Corn",[16]; 62 g ai/ha,0
same,"Plant response rating, Corn",[16]; 125 g ai/ha,0
same,"Plant response rating, Corn",[16]; 250 g ai/ha,35
same,"Plant response rating (scale of 0 to 100), Oilseed Rape",[17]; [19],0
same,"Plant response rating, Oilseed Rape",[17]; 62 g ai/ha,0
same,"Plant response rating, Oilseed Rape",[17]; 125 g ai/ha,30
same,"Plant response rating, Oilseed Rape",[17]; 250 g ai/ha,90
same,"Plant response rating (scale of 0 to 100), Ryegrass, Italian",[18]; [19],0
same,"Plant response rating, Ryegrass, Italian",[18]; 62 g ai/ha,0
same,"Plant response rating, Ryegrass, Italian",[18]; 125 g ai/ha,30
same,"Plant response rating, Ryegrass, Italian",[18]; 250 g ai/ha,45
